From publication PMC12351382, “Fibrinography and thrombography (thrombodynamics-4D) in atrial fibrillation assessment of direct oral anticoagulants in geriatrics patients aged 80 years and older receiving direct oral anticoagulant therapy” (Research and Practice in Thrombosis and Haemostasis, 2025)

How the values were obtained:
[1] = Plasma DOAC concentration in ADAGE patients (chromogenic anti-FXa assay for rivaroxaban and apixaban; anti-FIIa Hemoclot assay for dabigatran); assay type: in vivo, human; settings: for DOAC concentration, range: ADAGE patients, reduced dose (regimens as E1)
Excerpt: (§1) ADAGE is an academic, prospective, observational multicenter study (NCT 02464488; for details, see Foulon-Pinto et al.). We recruited hospitalized patients from the university hospital’s geriatric department (Assistance Publique-Hôpitaux de Paris, Paris, France). […] The DOAC dose regimen was at the discretion of the physician. Exclusion criteria included any acute, unstable comorbid condition or an estimated life expectancy of a few weeks. Sampling (see below) and last DOAC intake times were recorded on a standardized request form. Sampling time points were at the discretion of the physicians over a period of 20 days following inclusion. Time points were classified according to the time elapsed from the last oral intake (T, hours) for patients receiving rivaroxaban. T1 to T4 corresponded to peak time (Tmax), and T20 to T24 corresponded to trough (Tmin). […] Physicians prospectively collected demographic, clinical, and laboratory data (including creatinine clearance [CrCl] calculated with the Cockcroft–Gault formula). The study was approved by the institutionnel Ethics Committee (Comité consultatif de protection des personnes pour la recherche biomédicale–Île-de-France-6–number 15.074bis). All participants gave written informed consent to participate in the study. Only patients for whom remaining plasma aliquots were available were included in the present study.
(§2) Tubes were sent to each centre’s laboratory within 2 hours after sampling and immediately double-centrifuged for 15 minutes at 2000 × g at 15 to 22 °C to obtain platelet-poor plasma. Plasma samples (500 μL aliquots) were stored at −80 °C prior to shipment on dry ice for central analysis (Haematology Laboratory, Hôpital Lariboisière). Plasma samples were thawed for 3 to 5 minutes in a 37 °C water bath just before testing.
Dedicated calibrations and controls were used. The lower limit of quantification was 20 ng/mL for the 3 assays.

[2] = system: fibrin clot formation; experiment: Thrombodynamics-4D fibrinography in plasma samples from ADAGE patients on DOACs; assay type: in vivo, human; settings: for CS (clot size at 30 minutes), median (IQR) / CS (clot size at 30 minutes), range / D (clot density), median (IQR) / D (clot density), range / Fibrinography Tlag (lag time), median (IQR) / Fibrinography Tlag (lag time), range / Initial rate of clot growth (Vi), median (IQR) / Initial rate of clot growth (Vi), range / Time to Tsp (spontaneous clotting), median (IQR) / Time to Tsp (spontaneous clotting), range: ADAGE patients, reduced dose (regimens as E1)
Excerpt: as §1, §2
(§3) The TD-4D assay was performed centrally using the Thrombodynamics analyzer system (Hemacore, Diapharma) with the TD-4D PLS dedicated kit (Hemacore, Diapharma). The system simultaneously measures spatiotemporal parameters of fibrin clot formation (fibrinography) and TG process (thrombography) in a thin layer of unstirred plasma. Briefly, 120 μL of platelet-poor plasma is added to a microcuvette containing corn trypsin inhibitor to prevent contribution of contact phase activation, then 5 μL of phospholipid solution (manufacturer’s reagent) is added. After incubation for 15 minutes at 37 °C in the Thrombodynamics device, the mixture is transferred to a second microcuvette containing calcium ions, and then immediately transferred to the measurement cuvette. Finally, the activator insert, whose surface is coated with immobilized tissue factor (100 pmol/m^2), is then transferred to the cuvette. The process of fibrin clot formation is recorded in a time-lapse video-microscopy mode using a dark-field light scattering method. Simultaneously, the system monitors TG by fluorimetry, based on the ability of thrombin to cleave a fluorogenic substrate, 7-amino-4-methylcoumarin (AMC) bound to a short amino acid sequence (Arg-Gly-Gly). The rate of AMC formation is proportional to local thrombin concentration. The microcuvette is maintained at 37 °C and is illuminated with red (625 nm) or ultra-violet (365 nm) light emitting diodes. Clot growth is detected with red light scattering, while AMC fluorescence is detected with UV. Scattered red light and fluorescence passing through the macro lens are recorded by a charge-coupled device system. Images under red and blue light are acquired once per minute. The whole analysis lasts 1 hour. The Thrombodynamics software (Hemacore, Diapharma) calculates parameters of spatiotemporal dynamics of fibrin clot formation and TG [40, 46]. […]

[3] = system: thrombin generation; experiment: Thrombodynamics-4D thrombography in plasma samples from ADAGE patients on DOACs; assay type: in vivo, human; settings: for ETP (endogenous thrombin potential, ETP_ATG), median (IQR) / ETP (endogenous thrombin potential, ETP_ATG), range / Thrombin peak height (Cmax_ATG), median (IQR) / Thrombin peak height (Cmax_ATG), range / Thrombography Tlag (Lag_ATG), median (IQR) / Thrombography Tlag (Lag_ATG), range / Time to peak (Tmax_ATG), median (IQR) / Time to peak (Tmax_ATG), range: ADAGE patients, reduced dose (regimens as E1)
Excerpt: as §1, §2, §3

[4] = system: fibrin clot formation; experiment: Thrombodynamics-4D fibrinography in pooled normal plasma (Cryocheck) spiked with DOACs; assay type: biochemical, human; settings: 0 to 1000 nM, mainly at low DOAC concentrations
Protocol: (§4) Frozen pooled normal plasma samples (Cryocheck-Cryopep) were spiked with increasing concentrations of DOACs (0-450 ng/mL), as previously described. […] were kindly provided by Bristol Myers Squibb/Pfizer, Bayer Healthcare, and Boehringer Ingelheim, respectively.
The TD-4D assay was performed centrally using the Thrombodynamics analyzer system (Hemacore, Diapharma) with the TD-4D PLS dedicated kit (Hemacore, Diapharma). The system simultaneously measures spatiotemporal parameters of fibrin clot formation (fibrinography) and TG process (thrombography) in a thin layer of unstirred plasma. Briefly, 120 μL of platelet-poor plasma is added to a microcuvette containing corn trypsin inhibitor to prevent contribution of contact phase activation, then 5 μL of phospholipid solution (manufacturer’s reagent) is added. […] The process of fibrin clot formation is recorded in a time-lapse video-microscopy mode using a dark-field light scattering method. […] Clot growth is detected with red light scattering, while AMC fluorescence is detected with UV. Scattered red light and fluorescence passing through the macro lens are recorded by a charge-coupled device system. […]
(§5) The following fibrinography parameters were recorded (see Supplementary Table 1): (i) lag time (Tlag, minutes); (ii) initial rate of clot growth (Vi, μm/min); (iii) rate of clot growth (V, μm/min); (iv) clot size (CS, μm) measured at 30 minutes; (v) clot density (D, arbitrary units); (vi) time to spontaneous clotting (Tsp, minutes). The following thrombography parameters (at the near-activator area) were recorded (see Supplementary Table 1): (i) Tlag (minutes); (ii) time to thrombin peak (minutes); (iii) maximal thrombin concentration (ie, thrombin peak height, Cmax_ATG, AU/L); (iv) endogenous thrombin potential (ETP_ATG, AU⋅min/L); (v) stationary amplitude of moving peak of thrombin (Ast, AU/L); (vi) rate of thrombin peak propagation (μm/min; see Supplementary Videos 1–3).

[5] = system: thrombin generation; experiment: Thrombodynamics-4D thrombography in pooled normal plasma (Cryocheck) spiked with DOACs; assay type: biochemical, human
Protocol: as §4
as §3, with “minute.” for “minute. The whole analysis lasts 1 hour. The Thrombodynamics software (Hemacore, Diapharma) calculates parameters of spatiotemporal dynamics of fibrin clot formation and TG [40, 46].”
as §5

[6] = all ADAGE patient samples, any time point and dose
[7] = all ADAGE patient samples, Spearman
[8] = univariate analysis, Tmax, line marked Halving
[9] = univariate analysis, Tmin, line marked Halving

DOAC concentration, range ([1]; Tmax (peak)): 69 to 442 ng/mL | DOAC concentration, range ([1]; Tmin (trough)): 20 to 240 ng/mL | DOAC plasma concentration, lower end of range [1, 6]: < 20 ng/mL | DOAC plasma concentration, upper end of range [1, 6]: 547 ng/mL
SMILES: COc1ccc(-n2nc(C(N)=O)c3c2C(=O)N(c2ccc(N4CCCCC4=O)cc2)CC3)cc1 [Apixaban]
CS (clot size at 30 minutes), median (IQR) ([2]; Tmax (peak)): 1362 (1317-1698) μm | CS (clot size at 30 minutes), range ([2]; Tmax (peak)): 1134-1857 μm | D (clot density), median (IQR) ([2]; Tmax (peak)): 25,340 (22,600-27,790) a.u. | D (clot density), range ([2]; Tmax (peak)): 14,090-34,880 a.u. | Fibrinography Tlag (lag time), median (IQR) ([2]; Tmax (peak)): 1.3 (1.2-1.4) min | Fibrinography Tlag (lag time), range ([2]; Tmax (peak)): 0.9 to 2.3 min | Initial rate of clot growth (Vi), median (IQR) ([2]; Tmax (peak)): 64.9 (60.9-74.2) μm/min | Initial rate of clot growth (Vi), range ([2]; Tmax (peak)): 56.1- 95.5 μm/min | Time to Tsp (spontaneous clotting), median (IQR) ([2]; Tmax (peak)): 22.9 (12.1-31.1) min | Time to Tsp (spontaneous clotting), range ([2]; Tmax (peak)): 6.8 to 48.2 min | CS (clot size at 30 minutes), median (IQR) ([2]; Tmin (trough)): 1655 (1395-1780) μm | CS (clot size at 30 minutes), range ([2]; Tmin (trough)): 1170-2147 μm | D (clot density), median (IQR) ([2]; Tmin (trough)): 25,470 (21,190-29,910) a.u. | D (clot density), range ([2]; Tmin (trough)): 15,530-37,550 a.u. | Fibrinography Tlag (lag time), median (IQR) ([2]; Tmin (trough)): 1.1 (1.0-1.3) min | Fibrinography Tlag (lag time), range ([2]; Tmin (trough)): 0.7 to 1.8 min | Initial rate of clot growth (Vi), median (IQR) ([2]; Tmin (trough)): 68.3 (64.8-76.2) μm/min | Initial rate of clot growth (Vi), range ([2]; Tmin (trough)): 54.6-88.8 μm/min | Time to Tsp (spontaneous clotting), median (IQR) ([2]; Tmin (trough)): 23.0 (12.8-28.1) min | Time to Tsp (spontaneous clotting), range ([2]; Tmin (trough)): 6.8 to 46.7 min | Change of CS (clot size) with increasing concentrations ([2]; all ADAGE patient samples): decreased | Association of D (clot density) with DOAC concentration [2, 7]: not | Relationship between time to spontaneous clot formation (Tsp) and DOAC levels [2, 7]: no relationship | Effect of DOAC concentration at Tmax (βC.pic) on fibrinography initial velocity of clot formation [2, 8]: ≈ 0.02018% | Effect of DOAC concentration at Tmin (βC.res) on fibrinography initial velocity of clot formation [2, 9]: ≈ 0.04558% | ETP (endogenous thrombin potential, ETP_ATG), median (IQR) ([3]; Tmax (peak)): 1698 (1280-1961) AU⋅min/L | ETP (endogenous thrombin potential, ETP_ATG), range ([3]; Tmax (peak)): 971-3095 AU⋅min/L | Thrombin peak height (Cmax_ATG), median (IQR) ([3]; Tmax (peak)): 309 (240-395) AU/L | Thrombin peak height (Cmax_ATG), range ([3]; Tmax (peak)): 206-507 AU/L | Thrombography Tlag (Lag_ATG), median (IQR) ([3]; Tmax (peak)): 0.3 (0.2-0.6) min | Thrombography Tlag (Lag_ATG), range ([3]; Tmax (peak)): 0.1 to 1.3 min | Time to peak (Tmax_ATG), median (IQR) ([3]; Tmax (peak)): 2.1 (2.1-2.6) min | Time to peak (Tmax_ATG), range ([3]; Tmax (peak)): 1.2 to 4.6 min | ETP (endogenous thrombin potential, ETP_ATG), median (IQR) ([3]; Tmin (trough)): 1711 (1436-1978) AU⋅min/L | ETP (endogenous thrombin potential, ETP_ATG), range ([3]; Tmin (trough)): 924-2958 AU⋅min/L | Thrombin peak height (Cmax_ATG), median (IQR) ([3]; Tmin (trough)): 325 (292-379) AU/L | Thrombin peak height (Cmax_ATG), range ([3]; Tmin (trough)): 158-511 AU/L | Thrombography Tlag (Lag_ATG), median (IQR) ([3]; Tmin (trough)): 0.2 (0.2-0.6) min | Thrombography Tlag (Lag_ATG), range ([3]; Tmin (trough)): 0.1 to 1.0 min | Time to peak (Tmax_ATG), median (IQR) ([3]; Tmin (trough)): 2.1 (2.1-2.1) min | Time to peak (Tmax_ATG), range ([3]; Tmin (trough)): 1.6 to 3.6 min | Change of ETP_ATG with increasing DOAC plasma concentrations ([3]; all ADAGE patient samples): decreased | Effect of DOAC concentration at Tmax (βC.pic) on thrombography peak height (PH) [3, 8]: ≈ 0.07471% | Effect of DOAC concentration at Tmin (βC.res) on thrombography peak height (PH) [3, 9]: ≈ 0.1698% | Samples in which spontaneous clotting occurred [4]: 14% | Change of Ast (stationary amplitude of thrombin moving peak) with increasing concentrations [5]: decreased
